For assay [1], the system named is luciferase-expressing L. major parasites developing intracellularly inside RAW 264.7 macrophages. In words: Leishmania major intracellular amastigote assay in RAW 264.7 macrophages (luciferase). Format: cell-based. The settings on record: RAW264.7, 96 hours, read-out: IC50: I Org. intracellular amastigote Growth L. major, 4 d. Summed up: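 RAW 264.7 macrophages infected overnight with luciferase-expressing L. major promastigotes, washed of extracellular parasites, then exposed to two-fold compound dilutions (final 0.5-10,000 ng/ml) for 96 h at 37° C, 5% CO2. Luciferin luminescence after 30 min; IC50 by sigmoidal variable-slope regression.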

Assay [2] relates to TdTomato-modified T. cruzi (CL strain) in Vero cells. In words: In vitro IC50 measurement of T. cruzi amastigote killing using TdTomato-modified T. cruzi (CL strain). Format: cell-based. The conditions noted are these: Trypanosoma cruzi, 72 h, fluorescence, read-out: IC50: I Org. amastigote Growth T. cruzi CL TdTomato, 3 d. Put shortly: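 Vero cells were infected with tdTomato-expressing CL-strain parasites and dosed at 5 uM–5 nM. Fluorescence (ex 544/em 612 nm) was read at day 0 and again after 72 h at 37 °C, with day 0 values subtracted. IC50 and IC90 came from nonlinear regression.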

Regarding `CC1OB(O)c2cc(NC(=O)c3cn(-c4ccccc4)nn3)ccc21` (stereo not shown) [Example 2], the IC50 is not above 1 µM in assay [1] and less than 0.6 µM in assay [2].

As to `O=C(Nc1ccc2c(c1)B(O)OC21CCC1)c1cn(-c2ccccc2)nn1` [Example 3, N-(1-hydroxy-1H-spiro[benzo[c][1,2]oxaborole-3,1′-cyclobutan]-6-yl)-1-phenyl-1H-1,2,3-triazole-4-carboxamide], the half-inhibitory concentration (IC50) was not above 1 µM in assay [1] and 1.1 to 10 µM in assay [2]. In the case of `Cc1c(C(=O)Nc2ccc3c(c2)B(O)OC32CCC2)nnn1-c1ccccc1` [Example 4, N-(1-hydroxy-1H-spiro[benzo[c][1,2]oxaborole-3,1′-cyclobutan]-6-yl)-5-methyl-1-phenyl-1H-1,2,3-triazole-4-carboxamide], the results for the IC50 in assay [1] and in assay [2] were not above 1 µM and 0.6 to 1 µM, respectively. On the same counts, the results for `CC1OB(O)c2cc(NC(=O)c3cn(-c4ccc(F)cc4)nn3)ccc21` (stereo not shown) [Example 5] are not above 1 µM and 0.6 to 1 µM. With `Cc1c(C(=O)Nc2ccc3c(c2)B(O)OC3C)nnn1-c1ccc(F)cc1` (stereo not shown) [Example 6, 1-(4-fluorophenyl)-N-(1-hydroxy-3-methyl-1,3-dihydrobenzo[c][1,2]oxaborol-6-yl)-5-methyl-1H-1,2,3-triazole-4-carboxamide], the IC50 in assay [1] is not above 1 µM; in assay [2] it was 0.6 to 1 µM.

For `O=C(Nc1ccc2c(c1)B(O)OC21CCC1)c1cn(-c2ccc(F)cc2)nn1` [Example 7, 1-(4-fluorophenyl)-N-(1-hydroxy-1H-spiro[benzo[c][1,2]oxaborole-3,1′-cyclobutan]-6-yl)-1H-1,2,3-triazole-4-carboxamide], the figures for the half-inhibitory concentration (IC50) in assay [1] and in assay [2] were 1.1 to 9.9 µM and 1.1 to 10 µM, respectively. For `O=C(Nc1ccc2c(c1)B(O)OC21CCC1)c1cn(-c2cccnc2)nn1` [Example 8, N-(1-hydroxy-1H-spiro[benzo[c][1,2]oxaborole-3,1′-cyclobutan]-6-yl)-1-(pyridin-3-yl)-1H-1,2,3-triazole-4-carboxamide] the same measures were 10 to 50 µM and 1.1 to 10 µM. For `Cc1c(C(=O)Nc2ccc3c(c2)B(O)OC32CCC2)nnn1-c1ccc(F)cc1` [Example 9, 1-(4-fluorophenyl)-N-(1-hydroxy-1H-spiro[benzo[c][1,2]oxaborole-3,1′-cyclobutan]-6-yl)-5-methyl-1H-1,2,3-triazole-4-carboxamide] the same measures were 10 to 50 µM and 1.1 to 10 µM.

Regarding `Cc1ccc(-n2cc(C(=O)Nc3ccc4c(c3)B(O)OC4)nn2)cc1` [Example 10, N-(1-hydroxy-1,3-dihydrobenzo[c][1,2]oxaborol-6-yl)-1-(p-tolyl)-1H-1,2,3-triazole-4-carboxamide], the results for the half-maximal inhibitory concentration (IC50) in assay [1] and in assay [2] were not above 1 µM and less than 0.6 µM, respectively. On the same counts, the results for `Cc1ccc(-n2nnc(C(=O)Nc3ccc4c(c3)B(O)OC4)c2C)cc1` [Example 11, N-(1-hydroxy-1,3-dihydrobenzo[c][1,2]oxaborol-6-yl)-5-methyl-1-(p-tolyl)-1H-1,2,3-triazole-4-carboxamide] are 1.1 to 9.9 µM and 1.1 to 10 µM.

Consider `CC1OB(O)c2cc(NC(=O)c3cn(-c4cccnc4)nn3)ccc21` (stereo not shown) [Example 12, N-(1-hydroxy-3-methyl-1,3-dihydrobenzo[c][1,2]oxaborol-6-yl)-1-(pyridin-3-yl)-1H-1,2,3-triazole-4-carboxamide], for which the half-inhibitory concentration (IC50) in assay [1] is 1.1 to 9.9 µM; in assay [2], 0.6 to 1 µM. As for `Cc1ccc(-n2nnc(C(=O)Nc3ccc4c(c3)B(O)OC4C)c2C)cc1` (stereo not shown) [Example 13, N-(1-hydroxy-3-methyl-1,3-dihydrobenzo[c][1,2]oxaborol-6-yl)-5-methyl-1-(p-tolyl)-1H-1,2,3-triazole-4-carboxamide], the 50% inhibitory concentration (IC50) was 1.1 to 9.9 µM in assay [1] and 0.6 to 1 µM in assay [2]. On the same counts, the results for `Cc1c(C(=O)Nc2ccc3c(c2)B(O)OC3C)nnn1-c1cccnc1` (stereo not shown) [Example 14] are 1.1 to 9.9 µM and 1.1 to 10 µM. `Cc1ccc(-n2cc(C(=O)Nc3ccc4c(c3)B(O)OC43CCC3)nn2)cc1` [Example 15]: the results for the half-inhibitory concentration (IC50) in assay [1] and in assay [2] were 10 to 50 µM and 1.1 to 10 µM, respectively. On the same counts, the results for `Cc1ccc(-n2nnc(C(=O)Nc3ccc4c(c3)B(O)OC43CCC3)c2C)cc1` [Example 16, N-(1-hydroxy-1H-spiro[benzo[c][1,2]oxaborole-3,1′-cyclobutan]-6-yl)-5-methyl-1-(p-tolyl)-1H-1,2,3-triazole-4-carboxamide] are 10 to 50 µM and 1.1 to 10 µM.

For the compound `Cc1c(C(=O)Nc2ccc3c(c2)B(O)OC32CCC2)nnn1-c1cccnc1` [Example 17, N-(1-hydroxy-1H-spiro[benzo[c][1,2]oxaborole-3,1′-cyclobutan]-6-yl)-5-methyl-1-(pyridin-3-yl)-1H-1,2,3-triazole-4-carboxamide], the values for the concentration for half-maximal inhibition (IC50) in assay [1] and in assay [2] were 10 to 50 µM and 1.1 to 10 µM, respectively. Take `Cc1ccc(-n2cc(C(=O)Nc3ccc4c(c3)B(O)OC4C)nn2)cc1` (stereo not shown) [Example 18, N-(1-hydroxy-3-methyl-1,3-dihydrobenzo[c][1,2]oxaborol-6-yl)-1-(p-tolyl)-1H-1,2,3-triazole-4-carboxamide]: the figures for the IC50 in assay [1] and in assay [2] were not above 1 µM and less than 0.6 µM, respectively. For `COc1ccc(-n2nnc(C(=O)Nc3ccc4c(c3)B(O)OC4C)c2C)cc1` (stereo not shown) [Example 19, N-(1-hydroxy-3-methyl-1,3-dihydrobenzo[c][1,2]oxaborol-6-yl)-1-(4-methoxyphenyl)-5-methyl-1H-1,2,3-triazole-4-carboxamide], the IC50 in assay [1] was not above 1 µM; in assay [2] it was 0.6 to 1 µM. On the same counts, the results for `COc1ccc(-n2nnc(C(=O)Nc3ccc4c(c3)B(O)OC43CCC3)c2C)cc1` [Example 20, N-(1-hydroxy-1H-spiro[benzo[c][1,2]oxaborole-3,1′-cyclobutan]-6-yl)-1-(4-methoxyphenyl)-5-methyl-1H-1,2,3-triazole-4-carboxamide] are 10 to 50 µM and 1.1 to 10 µM. Consider `COc1ccc(-n2cc(C(=O)Nc3ccc4c(c3)B(O)OC4)nn2)cc1` [Example 21, N-(1-hydroxy-1,3-dihydrobenzo[c][1,2]oxaborol-6-yl)-1-(4-methoxyphenyl)-1H-1,2,3-triazole-4-carboxamide], for which the figures for the IC50 in assay [1] and in assay [2] were not above 1 µM and less than 0.6 µM, respectively. In the case of `COc1ccc(-n2cc(C(=O)Nc3ccc4c(c3)B(O)OC4C)nn2)cc1` (stereo not shown) [Example 22, N-(1-hydroxy-3-methyl-1,3-dihydrobenzo[c][1,2]oxaborol-6-yl)-1-(4-methoxyphenyl)-1H-1,2,3-triazole-4-carboxamide], the values for the IC50 in assay [1] and in assay [2] were not above 1 µM and less than 0.6 µM, respectively.

On to `CC1OB(O)c2cc(NC(=O)c3cn(-c4ccccn4)nn3)ccc21` (stereo not shown) [Example 23, N-(1-hydroxy-3-methyl-1,3-dihydrobenzo[c][1,2]oxaborol-6-yl)-1-(pyridin-2-yl)-1H-1,2,3-triazole-4-carboxamide], for which the values for the concentration for half-maximal inhibition (IC50) in assay [1] and in assay [2] were not above 1 µM and less than 0.6 µM, respectively. For `Cc1c(C(=O)Nc2ccc3c(c2)B(O)OC3C)nnn1-c1ccccn1` (stereo not shown) [Example 24, N-(1-hydroxy-3-methyl-1,3-dihydrobenzo[c][1,2]oxaborol-6-yl)-5-methyl-1-(pyridin-2-yl)-1H-1,2,3-triazole-4-carboxamide] the same measures were not above 1 µM and less than 0.6 µM. On the same counts, the results for `COc1ccc(-n2cc(C(=O)Nc3ccc4c(c3)B(O)OC43CCC3)nn2)cc1` [Example 25, N-(1-hydroxy-1H-spiro[benzo[c][1,2]oxaborole-3,1′-cyclobutan]-6-yl)-1-(4-methoxyphenyl)-1H-1,2,3-triazole-4-carboxamide] are 10 to 50 µM and 0.6 to 1 µM. For the compound `O=C(Nc1ccc2c(c1)B(O)OC2)c1nnn(-c2ccccc2F)c1C(F)(F)F` [Example 67, 1-(2-Fluorophenyl)-N-(1-hydroxy-1,3-dihydrobenzo[c][1,2]oxaborol-6-yl)-5-(trifluoromethyl)-1H-1,2,3-triazole-4-carboxamide], the 50% inhibitory concentration (IC50) in assay [1] was not above 1 µM. The same measure, in the same setting: in the case of `O=C(Nc1ccc2c(c1)B(O)OC2)c1nnn(-c2ccccc2)c1C(F)(F)F` [Example 68, N-(1-hydroxy-1,3-dihydrobenzo[c][1,2]oxaborol-6-yl)-1-phenyl-5-(trifluoromethyl)-1H-1,2,3-triazole-4-carboxamide] it was not above 1 µM; in that of `O=C(Nc1ccc2c(c1)B(O)OC2)c1nnn(-c2cccc(F)c2)c1C(F)(F)F` [Example 69, 1-(3-Fluorophenyl)-N-(1-hydroxy-1,3-dihydrobenzo[c][1,2]oxaborol-6-yl)-5-(trifluoromethyl)-1H-1,2,3-triazole-4-carboxamide], not above 1 µM; in that of `O=C(Nc1ccc2c(c1)B(O)OC2)c1nnn(-c2ccc(F)cc2)c1C(F)(F)F` [Example 70, 1-(4-Fluorophenyl)-N-(1-hydroxy-1,3-dihydrobenzo[c][1,2]oxaborol-6-yl)-5-(trifluoromethyl)-1H-1,2,3-triazole-4-carboxamide], not above 1 µM. For the compound `O=C(Nc1ccc2c(c1)B(O)OC2)c1nnn(-c2cccnc2)c1C(F)(F)F` [Example 71, N-(1-hydroxy-1,3-dihydrobenzo[c][1,2]oxaborol-6-yl)-1-(pyridin-3-yl)-5-(trifluoromethyl)-1H-1,2,3-triazole-4-carboxamide], in assay [1], the 50% inhibitory concentration (IC50) is not above 1 µM.

Consider `Cc1c(C(=O)Nc2ccc3c(c2)B(O)OC3)nnn1-c1ccccc1` [Example 89, A-(1-hydroxy-1,3-dihydrobenzo[c][1,2]oxaborol-6-yl)-5-methyl-1-phenyl-1H-1,2,3-triazole-4-carboxamide], for which, in assay [1], the 50% inhibitory concentration (IC50) was not above 1 µM.

As for `COc1ccc(-n2nnc(C(=O)Nc3ccc4c(c3)B(O)OC4)c2C)cc1` [Example 91, N-(1-hydroxy-1,3-dihydrobenzo[c][1,2]oxaborol-6-yl)-1-(4-methoxyphenyl)-5-methyl-1H-1,2,3-triazole-4-carboxamide], the IC50 in assay [1] lay within 1.1 to 9.9 µM.

As a reminder, the IC50 is the concentration that inhibits the measured activity by half.

The values above are taken from US11691992B2 (Anacor Pharmaceuticals, Inc., priority 2017, dated 2023).
